{"source": "patent US20150080442A1", "about": "“TRANSMUCOSAL DRUG DELIVERY SYSTEM” (PHARMACEUTICAL PRODUCTIONS INC., priority 2013, published 2015)", "origin": "cited, not measured here", "key": {"[1]": {"details": "pH 6.8"}}}
{"smiles": "CN(C)CCc1c[nH]c2ccc(C[C@H]3COC(=O)N3)cc12", "note": "[Zolmitriptan]", "values": [{"measurement": "mean absolute oral bioavailability", "value": "approximately 40%"}]}
{"smiles": "CN1CCCC1c1cccnc1", "note": "(centres unmarked) [nicotine]", "values": [{"measurement": "nicotine in the free base form", "setting": "[1]", "value": "about 10%"}]}
